“And” between values parts separate entries of the source, which are not always exact repeats. Equal values may be shown once.
How the values were obtained:
Experiment in all cases: Kinase inhibition screen, cell-free 33P ATP assay at 10 μM
Format in all cases: biochemical
[1] = biological target: 140 purified human kinases (Homo sapiens, UniProt Q9NQU5)
In short: (§1)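 Radiometric ^33P ATP cell-free format with purified enzymes; both complexes run at 10 μM in duplicate, results plotted on a kinome map via HGNC symbols.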

[2] = biological target: 140 purified human kinases (Homo sapiens, UniProt Q9BYT3)
In short: as §1

[3] = biological target: T1, 140 purified human kinases (Homo sapiens, UniProt P53778); settings: p38g MAPK
T1 sequence (P53778 1-367): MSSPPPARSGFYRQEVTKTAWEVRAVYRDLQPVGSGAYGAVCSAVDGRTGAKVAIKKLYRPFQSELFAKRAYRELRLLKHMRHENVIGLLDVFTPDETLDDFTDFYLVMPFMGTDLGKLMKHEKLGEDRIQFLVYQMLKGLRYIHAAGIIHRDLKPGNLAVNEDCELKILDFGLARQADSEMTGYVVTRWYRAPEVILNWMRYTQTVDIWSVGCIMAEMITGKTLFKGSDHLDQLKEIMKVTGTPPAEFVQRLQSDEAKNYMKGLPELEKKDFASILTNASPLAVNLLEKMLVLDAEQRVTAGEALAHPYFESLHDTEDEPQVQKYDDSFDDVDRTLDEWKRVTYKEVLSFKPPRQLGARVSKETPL
In short: as §1

[4] = biological target: 140 purified human kinases (Homo sapiens, UniProt Q9Y2K2)
In short: as §1

[5] = biological target: 140 purified human kinases (Homo sapiens, UniProt Q8N4C8)
In short: as §1

[6] = biological target: 140 purified human kinases (Homo sapiens, UniProt Q9H422)
In short: as §1

[7] = biological target: 140 purified human kinases (Homo sapiens, UniProt P17252); settings: PKCa
In short: as §1

[8] = biological target: T2, 140 purified human kinases (Homo sapiens, UniProt P54753)
T2 sequence (P54753 34-998): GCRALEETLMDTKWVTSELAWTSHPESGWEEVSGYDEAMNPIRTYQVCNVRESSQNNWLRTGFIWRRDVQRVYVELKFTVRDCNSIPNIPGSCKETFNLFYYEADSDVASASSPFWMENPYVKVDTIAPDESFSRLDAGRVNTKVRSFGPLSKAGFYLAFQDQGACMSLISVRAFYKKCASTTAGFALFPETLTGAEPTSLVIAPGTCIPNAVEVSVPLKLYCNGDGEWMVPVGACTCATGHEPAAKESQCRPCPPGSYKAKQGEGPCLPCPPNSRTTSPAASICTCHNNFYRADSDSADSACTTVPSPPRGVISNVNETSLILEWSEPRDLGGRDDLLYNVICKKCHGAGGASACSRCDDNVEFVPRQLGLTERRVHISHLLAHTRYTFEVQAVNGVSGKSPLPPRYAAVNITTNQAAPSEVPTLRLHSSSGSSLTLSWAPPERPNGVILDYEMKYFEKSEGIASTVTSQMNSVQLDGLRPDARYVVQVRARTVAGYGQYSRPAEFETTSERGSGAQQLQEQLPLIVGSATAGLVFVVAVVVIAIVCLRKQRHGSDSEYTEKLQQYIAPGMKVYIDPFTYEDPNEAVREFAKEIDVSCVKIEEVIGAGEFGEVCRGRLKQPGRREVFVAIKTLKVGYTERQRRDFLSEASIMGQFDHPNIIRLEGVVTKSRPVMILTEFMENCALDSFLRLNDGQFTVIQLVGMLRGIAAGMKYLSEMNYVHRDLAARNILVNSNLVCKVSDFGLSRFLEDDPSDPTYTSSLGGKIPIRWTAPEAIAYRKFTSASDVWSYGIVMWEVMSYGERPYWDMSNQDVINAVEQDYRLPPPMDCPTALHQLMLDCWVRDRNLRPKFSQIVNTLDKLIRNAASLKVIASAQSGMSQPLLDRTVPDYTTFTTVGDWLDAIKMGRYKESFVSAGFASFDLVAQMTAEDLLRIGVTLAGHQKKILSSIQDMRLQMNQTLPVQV
In short: as §1

Sequence of 140 purified human kinases (Homo sapiens, UniProt Q9H422) (Q9H422 whole entry): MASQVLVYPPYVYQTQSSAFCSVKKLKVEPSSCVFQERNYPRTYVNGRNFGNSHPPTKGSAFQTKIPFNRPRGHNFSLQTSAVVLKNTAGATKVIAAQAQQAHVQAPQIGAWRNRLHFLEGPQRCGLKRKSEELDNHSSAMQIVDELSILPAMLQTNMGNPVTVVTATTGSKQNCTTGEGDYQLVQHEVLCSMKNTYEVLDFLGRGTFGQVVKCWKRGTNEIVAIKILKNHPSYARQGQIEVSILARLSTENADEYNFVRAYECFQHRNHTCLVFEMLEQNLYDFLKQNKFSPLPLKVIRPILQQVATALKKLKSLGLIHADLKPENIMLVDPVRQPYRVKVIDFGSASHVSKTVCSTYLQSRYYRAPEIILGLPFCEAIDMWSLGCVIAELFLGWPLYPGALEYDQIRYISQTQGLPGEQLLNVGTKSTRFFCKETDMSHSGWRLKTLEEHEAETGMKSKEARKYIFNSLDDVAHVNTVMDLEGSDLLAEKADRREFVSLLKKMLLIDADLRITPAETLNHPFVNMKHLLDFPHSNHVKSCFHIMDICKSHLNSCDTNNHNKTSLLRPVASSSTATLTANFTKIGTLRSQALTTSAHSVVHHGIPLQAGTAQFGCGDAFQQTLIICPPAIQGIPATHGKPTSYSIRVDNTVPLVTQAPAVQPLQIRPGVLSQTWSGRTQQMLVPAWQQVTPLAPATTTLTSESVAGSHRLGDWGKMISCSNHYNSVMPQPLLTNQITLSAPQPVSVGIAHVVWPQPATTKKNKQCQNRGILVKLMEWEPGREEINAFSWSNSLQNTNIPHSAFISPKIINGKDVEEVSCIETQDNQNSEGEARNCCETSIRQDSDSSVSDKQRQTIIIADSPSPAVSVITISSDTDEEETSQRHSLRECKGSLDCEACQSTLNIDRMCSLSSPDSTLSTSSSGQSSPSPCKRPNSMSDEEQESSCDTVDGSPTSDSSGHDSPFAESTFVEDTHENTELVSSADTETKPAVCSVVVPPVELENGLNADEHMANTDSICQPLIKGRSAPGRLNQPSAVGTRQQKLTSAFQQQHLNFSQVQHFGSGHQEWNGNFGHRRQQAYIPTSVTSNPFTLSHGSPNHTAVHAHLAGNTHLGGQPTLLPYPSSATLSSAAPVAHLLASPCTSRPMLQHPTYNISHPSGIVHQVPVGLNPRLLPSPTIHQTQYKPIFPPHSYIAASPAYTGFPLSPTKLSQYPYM
Sequence of 140 purified human kinases (Homo sapiens, UniProt Q8N4C8) (Q8N4C8 whole entry): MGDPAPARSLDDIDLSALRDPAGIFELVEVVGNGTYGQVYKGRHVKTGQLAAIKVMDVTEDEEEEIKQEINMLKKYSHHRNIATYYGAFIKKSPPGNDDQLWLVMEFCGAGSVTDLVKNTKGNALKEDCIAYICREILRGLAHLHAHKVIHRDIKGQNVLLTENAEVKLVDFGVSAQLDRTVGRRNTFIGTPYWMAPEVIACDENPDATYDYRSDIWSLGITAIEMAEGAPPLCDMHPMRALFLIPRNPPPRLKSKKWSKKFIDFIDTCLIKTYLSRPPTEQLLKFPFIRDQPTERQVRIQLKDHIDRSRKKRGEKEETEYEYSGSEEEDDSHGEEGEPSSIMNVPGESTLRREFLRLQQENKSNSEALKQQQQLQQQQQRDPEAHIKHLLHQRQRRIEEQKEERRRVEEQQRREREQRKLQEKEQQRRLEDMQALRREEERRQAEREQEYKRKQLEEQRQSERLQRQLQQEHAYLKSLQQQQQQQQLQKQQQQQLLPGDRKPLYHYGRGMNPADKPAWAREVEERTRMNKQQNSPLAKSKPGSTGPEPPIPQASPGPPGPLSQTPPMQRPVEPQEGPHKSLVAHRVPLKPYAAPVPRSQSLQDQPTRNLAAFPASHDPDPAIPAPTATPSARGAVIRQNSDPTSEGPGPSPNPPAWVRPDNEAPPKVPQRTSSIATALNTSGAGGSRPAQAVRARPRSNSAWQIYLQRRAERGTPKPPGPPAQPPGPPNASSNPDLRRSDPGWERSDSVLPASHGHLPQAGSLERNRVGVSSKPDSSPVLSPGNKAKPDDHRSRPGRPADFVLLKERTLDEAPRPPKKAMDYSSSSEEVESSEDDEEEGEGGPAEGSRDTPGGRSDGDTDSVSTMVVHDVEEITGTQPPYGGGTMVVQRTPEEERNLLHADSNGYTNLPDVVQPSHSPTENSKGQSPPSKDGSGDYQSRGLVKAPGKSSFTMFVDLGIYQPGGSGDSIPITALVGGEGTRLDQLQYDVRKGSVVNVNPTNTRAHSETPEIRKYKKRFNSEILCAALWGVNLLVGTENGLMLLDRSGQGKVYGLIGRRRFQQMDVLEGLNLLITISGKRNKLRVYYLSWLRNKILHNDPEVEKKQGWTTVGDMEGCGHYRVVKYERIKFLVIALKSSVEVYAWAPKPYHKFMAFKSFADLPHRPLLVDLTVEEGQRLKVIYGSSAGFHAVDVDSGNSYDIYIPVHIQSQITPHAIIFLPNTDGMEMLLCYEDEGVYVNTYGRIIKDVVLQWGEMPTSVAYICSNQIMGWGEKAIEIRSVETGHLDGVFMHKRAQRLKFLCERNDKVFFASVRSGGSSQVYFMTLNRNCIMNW
Sequence of 140 purified human kinases (Homo sapiens, UniProt Q9BYT3) (Q9BYT3 whole entry): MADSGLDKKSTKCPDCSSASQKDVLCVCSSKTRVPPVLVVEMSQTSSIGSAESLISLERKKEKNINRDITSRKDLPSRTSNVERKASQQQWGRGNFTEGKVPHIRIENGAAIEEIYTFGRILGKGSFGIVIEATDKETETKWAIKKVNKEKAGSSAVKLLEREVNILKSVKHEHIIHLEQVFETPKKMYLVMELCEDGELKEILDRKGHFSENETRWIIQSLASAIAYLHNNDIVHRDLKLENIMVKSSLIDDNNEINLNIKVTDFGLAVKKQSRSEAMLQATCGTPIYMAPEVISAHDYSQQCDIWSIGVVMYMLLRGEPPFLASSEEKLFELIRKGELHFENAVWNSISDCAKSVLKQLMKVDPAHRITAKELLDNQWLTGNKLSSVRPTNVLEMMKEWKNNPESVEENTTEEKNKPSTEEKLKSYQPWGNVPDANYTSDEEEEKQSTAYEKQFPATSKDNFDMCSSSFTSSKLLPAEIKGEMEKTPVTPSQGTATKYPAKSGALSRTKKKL
Sequence of 140 purified human kinases (Homo sapiens, UniProt Q9NQU5) (Q9NQU5 whole entry): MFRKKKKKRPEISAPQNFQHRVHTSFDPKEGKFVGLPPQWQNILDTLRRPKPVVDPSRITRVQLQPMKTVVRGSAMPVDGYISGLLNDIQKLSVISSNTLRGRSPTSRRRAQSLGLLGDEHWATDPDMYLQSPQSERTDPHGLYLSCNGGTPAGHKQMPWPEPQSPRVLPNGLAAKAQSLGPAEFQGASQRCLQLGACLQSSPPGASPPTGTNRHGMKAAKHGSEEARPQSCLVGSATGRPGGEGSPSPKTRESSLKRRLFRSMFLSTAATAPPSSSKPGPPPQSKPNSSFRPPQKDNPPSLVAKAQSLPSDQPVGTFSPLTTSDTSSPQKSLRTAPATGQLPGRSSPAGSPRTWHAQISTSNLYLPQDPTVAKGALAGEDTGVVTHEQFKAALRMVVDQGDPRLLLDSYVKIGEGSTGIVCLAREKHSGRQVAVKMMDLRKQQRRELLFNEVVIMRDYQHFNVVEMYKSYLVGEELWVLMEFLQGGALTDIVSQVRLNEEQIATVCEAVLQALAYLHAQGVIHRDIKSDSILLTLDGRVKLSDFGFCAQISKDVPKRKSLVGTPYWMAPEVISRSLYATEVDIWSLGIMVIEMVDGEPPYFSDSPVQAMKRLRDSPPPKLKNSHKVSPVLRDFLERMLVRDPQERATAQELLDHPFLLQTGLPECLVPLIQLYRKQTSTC

[Cu+2].[Cu+2].[Cu+2].c1ccc(-c2csc(NCCN(CCNc3nc(-c4ccccn4)cs3)CCNc3nc(-c4ccccn4)cs3)n2)nc1.c1ccc(-c2csc(NCCN(CCNc3nc(-c4ccccn4)cs3)CCNc3nc(-c4ccccn4)cs3)n2)nc1 [[L2Cu3]6+]
% Inhibition Run 1 ([1]; PAK6): 49.1%
% Inhibition Run 2 ([1]; PAK6): 47.9%
% Inhibition, Mean ([1]; PAK6): 49%
mean % activity ([1]; PAK6): 52%
% activity ([1]; PAK6, Run 1): 50.9%
% activity ([1]; PAK6, Run 2): 52.1%
% Activation, Mean value ([2]; STK33): 7%
% Inhibition Run 1 ([2]; STK33): -1.8%
% Inhibition Run 2 ([2]; STK33): -12.3%
% Inhibition, Mean ([2]; STK33): -7%
mean % activity ([2]; STK33): 107%
% activity ([2]; STK33, Run 1): 101.8%
% activity ([2]; STK33, Run 2): 112.3%
% Activation, Mean value [3]: 3.55%
% Inhibition Run 1 [3]: -1.3%
% Inhibition Run 2 [3]: -5.8%
% Inhibition, Mean [3]: -3.55%
mean % activity [3]: 104%
% activity ([3]; Run 1): 101.3%
% activity ([3]; Run 2): 105.8%
% Inhibition Run 1 ([4]; SIK3): 48.7%
% Inhibition Run 2 ([4]; SIK3): 52.1%
% Inhibition, Mean ([4]; SIK3): 50%
mean % activity ([4]; SIK3): 50%
% activity ([4]; SIK3, Run 1): 51.3%
% activity ([4]; SIK3, Run 2): 47.9%
% Inhibition Run 1 ([5]; MINK1): 70%
% Inhibition Run 2 ([5]; MINK1): 78.2%
% Inhibition, Mean ([5]; MINK1): 74%
mean % activity ([5]; MINK1): 26%
% activity ([5]; MINK1, Run 1): 30%
% activity ([5]; MINK1, Run 2): 21.8%
% Inhibition Run 1 ([6]; HIPK3): 56.3%
% Inhibition Run 2 ([6]; HIPK3): 58.6%
% Inhibition, Mean ([6]; HIPK3): 57%
mean % activity ([6]; HIPK3): 43%
% activity ([6]; HIPK3, Run 1): 43.7%
% activity ([6]; HIPK3, Run 2): 41.4%
% Inhibition Run 1 [7]: 45.4%
% Inhibition Run 2 [7]: 66.7%
% Inhibition, Mean [7]: 56%
mean % activity [7]: 44%
% activity ([7]; Run 1): 54.6%
% activity ([7]; Run 2): 33.3%
% Inhibition Run 1 ([8]; EPH-B3): 12.5%
% Inhibition Run 2 ([8]; EPH-B3): 19.2%
% Inhibition, Mean ([8]; EPH-B3): 16%
mean % activity ([8]; EPH-B3): 84%
% activity ([8]; EPH-B3, Run 1): 87.5%
% activity ([8]; EPH-B3, Run 2): 80.8%

CC(=O)[O-].CC(=O)[O-].CC(=O)[O-].CC(=O)[O-].CC(=O)[O-].CC(=O)[O-].[Zn+2].[Zn+2].[Zn+2].c1ccc(-c2csc(NCCN(CCNc3nc(-c4ccccn4)cs3)CCNc3nc(-c4ccccn4)cs3)n2)nc1.c1ccc(-c2csc(NCCN(CCNc3nc(-c4ccccn4)cs3)CCNc3nc(-c4ccccn4)cs3)n2)nc1 [[L2Zn3]6+]
% Inhibition, Mean ([1]; PAK6): 27%
mean % activity ([1]; PAK6): 73%
% activity ([1]; PAK6, duplicate runs): 63% and 83%
% Inhibition, Mean ([2]; STK33): 6.55%
% Inhibition, Run 1 / Run 2 ([2]; STK33): 3.3% and 10%
mean % activity ([2]; STK33): 93%
% activity ([2]; STK33, duplicate runs): 97% and 90%
% Activation, Mean value [3]: 5%
% Inhibition, Mean [3]: -5%
% Inhibition, Run 1 / Run 2 [3]: -3.4% and -6.5%
mean % activity [3]: 105%
% activity ([3]; duplicate runs): 103% and 107%
% Inhibition, Mean ([4]; SIK3): 39%
% Inhibition, Run 1 / Run 2 ([4]; SIK3): 45% and 33%
mean % activity ([4]; SIK3): 61%
% activity ([4]; SIK3, duplicate runs): 55% and 67%
% Inhibition, Mean ([5]; MINK1): 67%
% Inhibition, Run 1 / Run 2 ([5]; MINK1): 72% and 62%
mean % activity ([5]; MINK1): 33%
% activity ([5]; MINK1, duplicate runs): 28% and 38%
% Inhibition, Mean ([6]; HIPK3): 15%
mean % activity ([6]; HIPK3): 85%
% activity ([6]; HIPK3, duplicate runs): 97% and 72%
% Inhibition, Mean [7]: 42%
% Inhibition, Run 1 / Run 2 [7]: 45% and 40%
mean % activity [7]: 58%
% activity ([7]; duplicate runs): 56% and 60%
% Inhibition, Mean ([8]; EPH-B3): 51%
% Inhibition, Run 1 / Run 2 ([8]; EPH-B3): 59% and 44%
mean % activity ([8]; EPH-B3): 49%
% activity ([8]; EPH-B3, duplicate runs): 41% and 56%
